In brackets after ≈: the same amount, converted by molar mass. Like-named read-outs stand apart in the source and are kept apart here.
What was measured:
B lymphocyte = test: Lymphocyte proliferation test, B lymphocyte proliferation response induced by LPS ([3H]-thymidine); format: cell-based, mouse; conditions: 48 hours
Procedure: 3. After incubated in 5% CO2 incubator at 37° C. for 48 hours, 0.5 μCi [^3H]-thymidine (25 μL/well) was added into each well 7-8 hours before the termination of the incubation. 4.

T lymphocyte = test: Lymphocyte proliferation test, T lymphocyte proliferation response induced by ConA ([3H]-thymidine); format: cell-based, mouse; conditions: 48 hours
Procedure: B. Lymphocyte Proliferation Test […] […] 3. After incubated in 5% CO2 incubator at 37° C. for 48 hours, 0.5 μCi [^3H]-thymidine (25 μL/well) was added into each well 7-8 hours before the termination of the incubation. 4.

[1] = Lymphocytotoxicity test (MTT); format: cell-based, mouse; conditions: BALB/c, primary spleen cells (splenic mononuclear cells), mouse spleen cells
Procedure: (§1) A. Lymphocytotoxicity Test
(§2) 1. BALB/c mice were killed by cervical dislocation, and their spleens were removed aseptically. A single spleen cell suspension was prepared and cell debris and clumps were removed.
(§3) 2. 80 μL cell suspension, 40 μL testing sample, 40 μL medium containing 10% FBS were added into 96 well plate; for the control group, 80 μL medium was added the total volume was 160 μL, and blank control group was set.
(§4) 3. After incubated in 5% CO2 incubator at 37° C. for 48 hours, 16 μL MTT (5 mg/mL) reagent was added into each well 6-7 hours before the termination of the incubation.

[2] = tested on: BALB/c mouse spleen cells; test: Lymphocytotoxicity test (MTT); format: cell-based; conditions: 48 hours
Procedure: as §1, §2, §3, §4

BALB/c mice [3] = conditions: ear swelling
Procedure: Each rear paw of BALB/c mice (female, 6-8 weeks old) was sensitized with 20 μL 0.5% DNFB (2,4-dinitrofluorobenzene) on day 0, and was reinforced next day (DNFB was dissolved in an oil agent [acetone:olive oil=4:1]);
Inside and outside of left ear of the mice were challenged with 10 μL 0.4% DNFB at day 7-9;
The test sample was administrated once 1 hour before challenge by i.p. injection or intragastric adminatration. After 12 hours, administered again;
24-48 hours after challenge, each index was measured.
Note: For BALB/c mice (female, 6-8 weeks old), the concentration of sensitizing agent was 0.7%, the concentration of challenging agent was 0.6%.

SD rats = conditions: intraperitoneally injected
BALB/c mice [4] = conditions: administered in vivo, BALB/c mice immunized with sheep red blood cells
Procedure: F. Production of Anti Sheep Red Blood Cell Specific Antibody of Mouse B Cells
Fresh sheep red blood cells (SRBC) were washed 3 times with PBS (pH7.2), and diluted by 1:20;
Fresh serum of guinea pig was diluted by 1:10;
2×10^7/mL of mouse spleen cell suspension was prepared;
Each 1 mL of the above three solutions was mixed and incubated at 37° C. for 1.5 hours, then is centrifuged with 2500 rpm×15 min. OD value was measured at 520 nM.
BALB/c mice were sensitized 3 days after administration: the sheep red blood cells were washed 3 times with saline, and the SRBC pressed volume was diluted by a rate of 5%. Each mouse was intraperitoneally injected with 0.2 mL, and dissected to take its spleen 6 days after sensitization. And the production amount of the antibodies was measured.

[5] = tested on: BALB/c mouse spleen cells and C57BL/6 mouse spleen cells
Procedure: C. Mixed Lymphocyte Reaction (MLR)
1. C57BL/6 and BALB/c mice were killed by cervical dislocation, their spleens were removed aseptically, and a single spleen cell suspension was prepared. After the red blood cells were removed, the cell concentration was adjusted to 4×10^6/mL with RPMI-1640 medium containing 10% FBS.
2. The spleen cells of C57BL/6 mice were response cells, and the spleen cells of BALB/c mice (irradiated with Co60, 3000 rads) were stimulator cells, the two kinds of cells were mixed with equal volumes.
3. 100 μL mixed cell suspension, 100 μL test sample were added into a 96-well plate; for the control group, 100 μL medium containing 10% serum was added, and single culture controls of the two kinds of cells were set.
4. Incubated in 5% CO2 incubator at 37° C. for 3, 4 or 5 days. 25 μL ^3H dilution (i.e. […] [^3H]-thymidine) was added 1 day before the termination of the incubation.
5. The incubation was terminated, the plate was freezed in a −20° C. refrigerator.
6. The cells were harvested with a cell harvestor ([…]96®, TOMTEC) on a glass fiber film, the incorporation of [^3H]-thymidine in DNA was detected with a liquid scintillation counter (MicroBeta Trilux®, PerkinElmer), which reflected the state of cell proliferation.

IL-2 = conditions: stimulator ConA, 24 hours
Procedure: (§5) D. Induction and Detection of Cytokine
(§6) 1. BALB/c mice were killed by cervical dislocation, their spleens were removed aseptically, and a single spleen cell suspension was prepared. After the red blood cells were removed, the cell concentration was adjusted to 5×10^6/mL with RPMI-1640 medium containing 10% FBS.
(§7) 2. 1 mL cell suspension, 0.5 mL test sample and 0.5 mL ConA (final concentration 5 μg/mL) or Sac (Staphylococcus aureus thallus containing staphylococcus protein A) (final concentration 0.01%) were added into […]; for the control group, 0.5 mL medium containing 10% FBS was added, the final volume was 2 mL.
(§8) 3. Incubated in 5% CO2 incubator at 37° C. for 24 or 48 hours, the supernatant was collected and freezed in −20° C. refrigerator, the cytokines was to be detected.
(§9) 4. Production of cytokines was detected with a double antibody sandwich enzyme linked immunosorbent assay (ELISA). TMB was used as substrate of the enzyme reaction, and the OD values was measured with a microplate reader at 450 nm. The production amount of cytokines of the samples was calculated according to the standard curve.

IL-12 = conditions: for production of cytokine IL-12: 24 hours
Procedure: as §5, §6, §7, §8, §9

IL-6 = conditions: for production of cytokine IL-6: 24 hours
Procedure: as §5, §6, §7, §8, §9

IFN-γ = conditions: for production of cytokine IFN-γ: 24 hours
Procedure: as §5, §6, §7, §8, §9

TNF-α = conditions: stimulated with PMA; dose dependent
Procedure: as §5, §6, §7, §8, §9

[6] = mouse spleen cells, ConA, read-out: Inhibiting activity of T lymphocyte proliferation response induced by ConA IC50
[7] = mouse spleen cells, read-out: Lymphocytotoxicity CC50
[8] = mouse spleen cells, LPS, read-out: Inhibiting activity of B lymphocyte proliferation response induced by LPS IC50
[9] = SM735 10−^5 Mol/L, stimulator LPS
[10] = SM735 10−^5 Mol/L, stimulator PMA + Ion
[11] = SM735 10−^6 Mol/L, stimulator LPS
[12] = SM735 10−^6 Mol/L, stimulator PMA + Ion
[13] = SM735 10−^7 Mol/L, stimulator LPS
[14] = SM735 10−^7 Mol/L, stimulator PMA + Ion

With `C[C@@H]1CC[C@H]2[C@@H](C)C(=O)O[C@@H]3O[C@@]4(C)CC[C@@H]1[C@]32OO4` [artemisinine, artemisinin] the IC50 (B lymphocyte; Lymphocyte, mouse spleen cells, LPS, read-out: Inhibiting activity of B lymphocyte proliferation response induced by LPS IC50) was 8.96 µM, the IC50 (T lymphocyte; T-lymphocyte, mouse spleen cells, ConA, read-out: Inhibiting activity of T lymphocyte proliferation response induced by ConA IC50) was 4.43 µM and the CC50 at 48 h [1] was 28.3 µM.

`C[C@H]1[C@H](OC(=O)CCC(=O)O)O[C@@H]2O[C@@]3(C)CC[C@H]4[C@H](C)CC[C@@H]1[C@@]24OO3` [artesunate, reference compound] showed an IC50 (T lymphocyte; [6]) of 3.82 µM and a CC50 [2, 7] of 86 µM.

Compound `COC(=O)Cc1ccc(OC2OC3OC4(C)CCC5C(C)CCC(C2C)C35OO4)cc1` (stereo not drawn) [compound 1, methyl 4-(12β-artemisininoxy)phenyl acetate] has an IC50 (B lymphocyte; [8]) of 0.179 µM, an IC50 (T lymphocyte; [6]) of 0.713 µM and a CC50 [2, 7] of 8 µM.

Compound `CC1CCC2C(C)C(Oc3ccc(CC(=O)O)cc3)OC3OC4(C)CCC1C32OO4` (stereo not drawn) [compound 2, 4-(12β-artemisininoxy)phenyl acetic acid] has an IC50 (B lymphocyte; [8]) of 10.2 µM, an IC50 (T lymphocyte; [6]) of 11.8 µM and a CC50 [2, 7] of 100 µM.

With `CC1CCC2C(C)C(Oc3cccc(OC(CC(=O)O)C(=O)O)c3)OC3OC4(C)CCC1C32OO4` (stereo not drawn) [compound 3, 3-(12β-artemisininoxy)phenoxy succinic acid] the “DTH reaction induced by DNFB” value (BALB/c mice [3]) was “inhibited”, the “IC50, B lymphocyte proliferation response induced by LPS” value (B lymphocyte) was 0.12 µg/mL (≈ 0.244 µM) and the IC50 (B lymphocyte; mean ± standard error, read-out: IC50, proliferation of spleen cells induced by LPS) was 0.27 ± 0.02 µM. For the same compound, the IC50 (B lymphocyte; [8]) was 0.265 µM, the “effect in rat adjuvant-induced arthritis animal model” value (SD rats) was “certain preventive and therapeutic effect” and the “IC50, T lymphocyte proliferation response induced by ConA” value (T lymphocyte) was 0.13 µg/mL (≈ 0.264 µM). The IC50 (T lymphocyte; mean ± standard error, read-out: IC50, proliferation of spleen cells induced by ConA) was 0.33 ± 0.06 µM, the IC50 (T lymphocyte; [6]) was 0.327 µM and the “cytotoxicity CC50” value ([2]; BALB/c mouse spleen cells) was 27 µg/mL. For the same compound, the CC50 ([2]; BALB/c mouse spleen cells, mean ± standard error, read-out: cytotoxicity CC50) was 53.1 ± 7.8 µM, the CC50 [2, 7] was 52.7 µM and the “antibody and complement production by mouse B cell (antibody forming cell)” value (BALB/c mice [4]) was “inhibited”. For the same compound, the “IC50, proliferation response caused by mixed lymphocyte reaction” value ([5]; 96 hours) was 2.1 µg/mL (≈ 4.26 µM), the IC50 ([5]; read-out: IC50, one way mixed lymphocyte reaction, co-cultured for 96 hours, no unit printed) was 0.86 ± 0.18 µM and the “production of cytokine IL-2” value (IL-2; SM735 10−^5 Mol/L) was 2053 ± 162 pg/mL. The “production of cytokine IL-2” value (IL-2; SM735 10−^6 Mol/L) was 2343 ± 154 pg/mL, the “production of cytokine IL-2” value (IL-2; SM735 10−^7 Mol/L) was 2250 ± 77 pg/mL and the “production of cytokine IL-12” value (IL-12; [9]) was 292 ± 26 pg/mL. The “production of cytokine IL-12” value (IL-12; [10]) was 198 ± 35 pg/mL, the “production of cytokine IL-12” value (IL-12; [11]) was 565 ± 18 pg/mL and the “production of cytokine IL-12” value (IL-12; [12]) was 487 ± 37 pg/mL. For the same compound, the “production of cytokine IL-12” value (IL-12; [13]) was 592 ± 33 pg/mL, the “production of cytokine IL-12” value (IL-12; [14]) was 586 ± 52 pg/mL and the “production of IL-12 (result in words)” value (IL-12; activated lymphocytes) was “inhibited”. The “production of cytokine IL-6” value (IL-6; [9]) was 522 ± 1 pg/mL, the “production of cytokine IL-6” value (IL-6; [10]) was 1465 ± 35 pg/mL and the “production of cytokine IL-6” value (IL-6; [11]) was 792 ± 42 pg/mL. For the same compound, the “production of cytokine IL-6” value (IL-6; [12]) was 2663 ± 52 pg/mL, the “production of cytokine IL-6” value (IL-6; [13]) was 840 ± 10 pg/mL and the “production of cytokine IL-6” value (IL-6; [14]) was 2886 ± 26 pg/mL. The “production of IL-6 (result in words)” value (IL-6; stimulated with PMA, dose dependent) was “obviously inhibited”, the “production of cytokine IFN-γ” value (IFN-γ; SM735 10−^5 Mol/L, stimulator ConA) was 322 ± 18 pg/mL and the “production of cytokine IFN-γ” value (IFN-γ; [9]) was 103 ± 7 pg/mL. For the same compound, the “production of cytokine IFN-γ” value (IFN-γ; [10]) was 144 ± 21 pg/mL, the “production of cytokine IFN-γ” value (IFN-γ; SM735 10−^6 Mol/L, stimulator ConA) was 976 ± 18 pg/mL and the “production of cytokine IFN-γ” value (IFN-γ; [11]) was 172 ± 2 pg/mL. For the same compound, the “production of cytokine IFN-γ” value (IFN-γ; [12]) was 557 ± 31 pg/mL, the “production of cytokine IFN-γ” value (IFN-γ; SM735 10−^7 Mol/L, stimulator ConA) was 1219 ± 33 pg/mL and the “production of cytokine IFN-γ” value (IFN-γ; [13]) was 207 ± 13 pg/mL. For the same compound, the “production of cytokine IFN-γ” value (IFN-γ; [14]) was 768 ± 6 pg/mL, the “production of IFN-γ (result in words)” value (IFN-γ; activated lymphocytes) was “inhibited” and the “production of TNF-α (result in words)” value (TNF-α) was “obviously inhibited”.

In the case of `CC1CCC2C(C)C(Oc3ccc(OCC(=O)OCCN(C)C)cc3)OC3OC4(C)CCC1C32OO4` (stereo not drawn) [compound 4, dimethylaminoethyl-[4-(12β-artemisininoxy)phenoxy] acetate], the IC50 (B lymphocyte; [8]) is reported as 0.0496 µM, the IC50 (T lymphocyte; [6]) is reported as 1.96 µM and the CC50 [2, 7] is reported as 2.08 µM.

Compound `CCOC(=O)CNC(=O)c1ccc(OC2OC3OC4(C)CCC5C(C)CCC(C2C)C35OO4)cc1` (stereo not drawn) [compound 5, ethyl-[4-(12β-artemisininoxy)benzoyl] aminoacetate] has an IC50 (B lymphocyte; [8]) of 0.16 µM, an IC50 (T lymphocyte; [6]) of 2.53 µM and a CC50 [2, 7] of 39 µM.

For `COC(=O)C(C)c1ccc(OC2OC3OC4(C)CCC5C(C)CCC(C2C)C35OO4)cc1` (stereo not drawn) [compound 21, methyl 2-[4-(12β-artemisininoxy)phenyl] propionate], the IC50 (B lymphocyte; [8]) was 0.16 µM, the IC50 (T lymphocyte; [6]) was 0.064 µM and the CC50 [2, 7] was 7.8 µM.

— patent US7910750B2, “Artemisinin (qinghaosu) derivatives, their preparation methods and their use, and pharmaceutical compositions containing the same” (Shanghai Institute of Materia Medica, Chinese Academy of …, priority 2005, dated 2011)
